Test results reported in paper PMC6792352, “Limited Chemical Structural Diversity Found to Modulate Thyroid Hormone Receptor in the Tox21 Chemical Library” (Environmental Health Perspectives, 2019).
Where a name gives a salt, the structure may show the parent alone.

Test: in vitro
Settings: rat, gh3-tre-luc cells, AC50 (uM) modified / 1000

Compound | CC50 at 24 h
CCOC(=O)c1ccccc1C(=C1C=C(Br)C(=O)C(Br)=C1)c1cc(Br)c(O)c(Br)c1 [Tetrabromophenolphthalein ethyl ester] | 42.7 µM
C[Si](Cn1cncn1)(c1ccc(F)cc1)c1ccc(F)cc1 [Flusilazole] | > 90 µM
CC(C)(C)c1cc(CCC(=O)NN)cc(C(C)(C)C)c1O [3-[3,5-DI(tert-butyl)-4-hydroxyphenyl]propanohydrazide] | > 90 µM
Cc1scc2c1N(C(=O)CN1CCN(C)CC1)c1ccccc1NC2=O [Telenzepine] | > 50 µM
CC(=O)Nc1ccc(S(N)(=O)=O)cc1 [4'-Sulfamylacetanilide] | > 90 µM
O=C=Nc1cccc(C(F)(F)F)c1 [3-(Trifluoromethyl)phenyl isocyanate] | 49 µM
CC(O)c1ccccc1 (stereo not drawn) [alpha-Methylbenzyl alcohol] | > 90 µM
O=C(O)CCc1nc2ccccc2[nH]1 [Procodazole] | > 50 µM
Cc1cc(CC(=O)O)c(C)n1-c1ccc(Cl)cc1 [Clopirac] | > 50 µM
Oc1cccc(O)c1 [Resorcinol] | > 90 µM
O=C(NCCN1CCOCC1)c1ccc(Cl)cc1 [Moclobemide] | > 50 µM
CCCC1CCCC(=O)O1 (stereo not drawn) [delta-Octanolactone] | > 90 µM
Cc1nnc(C(=O)NC(C)(C)c2nc(C(=O)NCc3ccc(F)cc3)c(O)c(=O)n2C)o1 [Raltegravir] | > 50 µM
CCC(C)(C)C1CCC(O)CC1 (stereo not drawn) [4-(2-Methylbutan-2-yl)cyclohexanol] | > 90 µM
COc1ccc(S(=O)(=O)N2C(=O)[C@@](c3ccccc3OC)(N3C[C@H](O)C[C@H]3C(=O)N(C)C)c3cc(Cl)ccc32)c(OC)c1 [Nelivaptan] | 34.9 µM
CCN(CC)c1ccccc1 [N,N-Diethylaniline] | > 90 µM
C=C(C)CN(CC)c1c([N+](=O)[O-])cc(C(F)(F)F)cc1[N+](=O)[O-] [Ethalfluralin] | > 90 µM
Cc1ccc(O)cc1 [p-Cresol] | > 100 µM
Cc1cc(C)c(C)cc1C [1,2,4,5-Tetramethylbenzene] | > 90 µM
CCCN(CCC)C(=O)SCC [EPTC] | > 100 µM
CC(C)CC(=O)C1C(=O)c2ccccc2C1=O [2-Isovaleryl-1,3-indanedione] | > 90 µM
CCCCCCCCCCCCCCC [Pentadecane] | > 90 µM
CCCOC(=O)c1ccccc1C(=O)OCCC [Dipropyl phthalate] | > 90 µM
COC(OC)OC [Trimethoxymethane] | > 90 µM

Compound | CC50 at 24 h
CCCCCC1CCCC(=O)O1 (stereo not drawn) [6-Pentyltetrahydro-2H-pyran-2-one] | > 90 µM
CC(C)=CCC1C(=O)N(c2ccccc2)N(c2ccccc2)C1=O [Feprazone] | 48.7 µM
CN(C)CCc1c[nH]c2cccc(OP(=O)(O)O)c12 [Psilocybin] | > 90 µM
CCn1ccnc1CC1COc2ccccc2O1 (stereo not drawn) [Imiloxan] | > 50 µM
CCOC(=O)COc1ccc2c(C)c(CCN(CC)CC)c(=O)oc2c1Cl [Cloricromen hydrochloride] | 31.2 µM
O=S(=O)(O)CC(O)CCl (stereo not drawn) [Sodium 3-chloro-2-hydroxypropane-1-sulfonate] | > 90 µM
O=[N+]([O-])c1cc[n+]([O-])cc1 [4-Nitropyridine-1-oxide] | > 90 µM
CCCCOC(=O)c1ccc(O)cc1 [Butylparaben] | > 50 µM
Cc1cccc(Nc2ccccc2)c1 [3-Methyl-N-phenylaniline] | > 90 µM
CC/C=C\CCOC(=O)C(C)C [(3Z)-Hex-3-en-1-yl 2-methylpropanoate] | > 90 µM
CC(C)c1ccc2ncccc2c1 [6-(1-Methylethyl)quinoline] | > 90 µM
Cc1c(C(=O)NCCO)[n+]([O-])c2ccccc2[n+]1[O-] [Olaquindox] | > 50 µM
C=C(C)C(=O)OCCOC1CC2CC1C1C=CCC21 (stereo not drawn) [(Dicyclopentadienyloxy)ethyl methacrylate] | > 100 µM
O=C(CCCN1CCC(O)(c2ccc(Br)cc2)CC1)c1ccc(F)cc1 [Bromperidol] | > 20 µM
O=C(O)c1c(Cl)cccc1Cl [2,6-Dichlorobenzoic acid] | > 90 µM
CCC(C)C(C)=O (stereo not drawn) [3-Methyl-2-pentanone] | > 90 µM
CC(C)(O)c1ccc(CNC(=O)c2cccnc2Oc2ccc(F)cc2)cc1 [CP-457677] | > 90 µM
CCOC(C)OCC [Acetal] | > 90 µM
C=CCOc1ccccc1OCC(O)CNC(C)C (stereo not drawn) [Oxprenolol hydrochloride] | > 20 µM
COCC(C)O (stereo not drawn) [1-Methoxy-2-propanol] | > 90 µM
C=CC(O)CCCCC (stereo not drawn) [1-Octen-3-ol] | > 90 µM
O=c1[nH][nH]c(=O)c2cc([N+](=O)[O-])ccc12 [6-Nitrophthalhydrazide] | > 90 µM
CNc1cnn(-c2cccc(C(F)(F)F)c2)c(=O)c1Cl [Norflurazon] | > 90 µM
Cc1ccc([N+](=O)[O-])cc1S(=O)(=O)O [2-Methyl-5-nitrobenzenesulfonic acid] | > 90 µM

Compound | CC50 at 24 h
Cc1ccc(NC(=O)c2ccc(CN3CCN(C)CC3)cc2)cc1Nc1nccc(-c2cccnc2)n1 [Imatinib mesylate] | 18.5 µM
CCN(CC)CCNC(=O)c1cc(Br)c(N)cc1OC [Bromopride] | > 50 µM
CC(CN(C)C)CN1c2ccccc2Sc2ccc(C(F)(F)F)cc21 (stereo not drawn) [Trifluomeprazine 2-butenedioate] | 9.4 µM
O=C(C(Cl)(Cl)Cl)C(Cl)(Cl)Cl [Hexachloroacetone] | > 90 µM
c1ccc(-c2ccccc2)cc1 [Biphenyl] | > 90 µM
O=c1[nH][nH]c2ccccc12 [3-Indazolinone] | > 90 µM
O=C(O)c1cccc(C[C@@H]2COc3ccc(OCc4nc5cc(F)ccc5s4)cc3[C@@H]2O)c1 [CP-085958] | > 90 µM
CC(C)COC(=O)c1ccc(N)cc1 [Isocaine] | > 50 µM
CCN(Cc1cccc(S(=O)(=O)O)c1)c1ccccc1 [3-((Ethylphenylamino)methyl)benzenesulfonic acid] | > 90 µM
Cc1ccc2c(Br)cc(Br)c(O)c2n1 [Broquinaldol] | 23 µM
COc1cc(NC(=O)CC(C)=O)c(OC)cc1Cl [4'-Chloro-2',5'-dimethoxyacetoacetanilide] | > 90 µM
O=C1CCCC(=O)C1 [1,3-Cyclohexanedione] | > 90 µM
OC[C@H]1O[C@@H](O[C@H]2[C@H](O)[C@@H](O)C(O)O[C@@H]2CO)[C@H](O)[C@@H](O)[C@@H]1O (stereo partly drawn) [Cellobiose] | > 50 µM
CCCCCCCCCCCCCCCCCC(=O)O [Triethanolamine stearate] | > 90 µM
CC(=O)OC/C=C(\C)CC/C=C(\C)CCC=C(C)C [trans,trans-Farnesyl acetate] | > 90 µM
O=C1Nc2ccc([N+](=O)[O-])cc2C1=O [5-Nitroisatin] | > 90 µM
C[C@]12CCC(=O)C=C1CC[C@@H]1[C@@H]2[C@@H](O)C[C@@]2(C)[C@H]1CC[C@]2(O)C(=O)CO [Hydrocortisone] | > 90 µM
OCCN1CCN(CCCN2c3ccccc3Sc3ccc(Cl)cc32)CC1 [Perphenazine] | 4.46 µM
CCCCCC(=O)OCC [Ethyl hexanoate] | > 90 µM
Clc1ccc(C(Cl)(Cl)Cl)c(Cl)c1 [2,4-Dichloro-1-(trichloromethyl)benzene] | > 90 µM
Clc1cnc(Oc2ccc(Oc3ncc(Cl)cc3Cl)cc2)c(Cl)c1 [1,4-Bis[2-(3,5-dichloropyridyloxy)]benzene] | > 60 µM
CCCCC[C@H](O)/C=C/[C@@H]1[C@H]2C/C(=C/CCCC(=O)O)O[C@H]2C[C@H]1O [Epoprostenol sodium] | > 50 µM
O=[N+]([O-])c1ccc(NCCO)c(OCCO)c1 [HC Yellow 4] | 58.6 µM

Same assay, conditions: rat, gh3-tre-luc cells, AC50 (uM) modified / 1000, Tox21_110001=Tox21_112166; viability, 1 nM T3 present, 24 h

Compound | CC50 at 24 h
CC1NCCOC1c1ccccc1 (stereo not drawn) [Phenmetrazine hydrochloride] | > 50 µM

Same assay, conditions: rat, gh3-tre-luc cells, AC50 (uM) modified / 1000, Tox21_110001=Tox21_200022; viability, 1 nM T3 present, 24 h

Compound | CC50 at 24 h
O=[N+]([O-])c1cccc(O)c1 [3-Nitrophenol] | > 90 µM

Same assay, conditions: rat, gh3-tre-luc cells, AC50 (uM) modified / 1000, Tox21_110001=Tox21_200535; viability, 1 nM T3 present, 24 h

Compound | CC50 at 24 h
O=CC(Br)(Br)Br [Tribromoacetaldehyde] | 25.5 µM

Same assay, conditions: rat, gh3-tre-luc cells, AC50 (uM) modified / 1000, Tox21_110001=Tox21_200642; viability, 1 nM T3 present, 24 h

Compound | CC50 at 24 h
CC(C)N(C(=O)SC/C(Cl)=C/Cl)C(C)C [Diallate] | 92.9 µM

Same assay, conditions: rat, gh3-tre-luc cells, AC50 (uM) modified / 1000, Tox21_110001=Tox21_202072; viability, 1 nM T3 present, 24 h

Compound | CC50 at 24 h
ClC1=C(Cl)[C@]2(Cl)[C@H]3[C@H]([C@@H]4C=C[C@H]3C4)[C@@]1(Cl)C2(Cl)Cl [Aldrin] | 51.6 µM

Same assay, conditions: rat, gh3-tre-luc cells, AC50 (uM) modified / 1000, Tox21_110001=Tox21_202582; viability, 1 nM T3 present, 24 h

Compound | CC50 at 24 h
Nc1c(Br)cc(Br)c2c1C(=O)c1ccccc1C2=O [1-Amino-2,4-dibromoanthraquinone] | > 20 µM

Same assay, conditions: rat, gh3-tre-luc cells, AC50 (uM) modified / 1000, Tox21_110001=Tox21_300172; viability, 1 nM T3 present, 24 h

Compound | CC50 at 24 h
ClC1=C(Cl)[C@]2(Cl)[C@H]3[C@H]([C@@H]4C=C[C@H]3C4)[C@@]1(Cl)C2(Cl)Cl [Aldrin] | 46.1 µM

Same assay, conditions: rat, gh3-tre-luc cells, AC50 (uM) modified / 1000, Tox21_110001=Tox21_300718; viability, 1 nM T3 present, 24 h

Compound | CC50 at 24 h
CCN(CC)c1nc(C)cc(OP(=S)(OC)OC)n1 [Pirimiphos-methyl] | > 90 µM

Same assay, conditions: rat, gh3-tre-luc cells, AC50 (uM) modified / 1000, Tox21_110001=Tox21_301323; viability, 1 nM T3 present, 24 h

Compound | CC50 at 24 h
CC(C)c1ccc(O)cc1 [4-Isopropylphenol] | > 90 µM

Same assay, conditions: rat, gh3-tre-luc cells, AC50 (uM) modified / 1000, Tox21_110001=Tox21_301905; viability, 1 nM T3 present, 24 h

Compound | CC50 at 24 h
CCOP(=O)(N=C1SCCS1)OCC [Phosfolan] | > 90 µM
